In US20230107598A1, “SORGHUM DOUBLED HAPLOID […]” (PIONEER HI-BRED INTERNATIONAL, INC., priority 2020, published 2023):

System: haploid sorghum plants
Test: Chromosome doubling of haploid sorghum plants by root treatment with colchicine
Assay type: in vivo
Conditions: colchicine 0.05%, 5 hours, roots
Source text: Plants from diploid sorghum genotypes, “PHI01”, “PHI02”, “PHI03”, “PHI04”, “PHI05”, “PHI06”, “PHI07”, “PHI08”, “PHI09”, “PHI10”, “PHI11”, “PHI12”, “PHI13”, “PHI14”, “PHI15”, “PHI16”, “PHI17”, “PHI18”, “PHI19”, and “PHI20” were pollinated with pollen obtained from pearl millet line PHI01A, as described in Example 2. Immature haploid embryos were isolated, as described in Example 2, 10-20 days after pollination and embryo sizes ranged from 0.1-3 mm long. These haploid embryos were germinated on a medium (see Table 4) in the dark. The germinated haploid embryos were then transferred to fresh media for an additional 7-10 days at 21°−26° C. in the dark until germinated plantlets formed. The germinated plantlets were then transferred to a light culture room and grown at 21°−26° C. for another 2-3 weeks until healthy plantlets having good roots developed. These plantlets were then potted into soil and grown in a regular greenhouse for 5-6 weeks. Upon healthy plant establishment, the roots were treated with a chromosome doubling agent, colchicine, for 5 hours in the dark. Additional chromosome doubling agents for example, pronamide, dithipyr, oryzalin, AMP, and trifluralin, or any of the other chromosome doubling agents referenced in Table 1 can also be used. After treatment with the doubling agent, the roots were then thoroughly rinsed with running water for 30 min, to remove the residual doubling agent and then potted in soil and grown to maturity.

[1] = PHI01/2018, 15 haploid plants treated
[2] = PHI02/2018, 63 haploid plants treated
[3] = PHI02/2019, 17 haploid plants treated
[4] = PHI02/2020, 13 haploid plants treated
[5] = PHI03/2018, 20 haploid plants treated
[6] = PHI04/2018, 9 haploid plants treated
[7] = PHI05/2018, 3 haploid plants treated
[8] = PHI05/2019, 4 haploid plants treated
[9] = PHI05/2020, 1 haploid plant treated
[10] = PHI06/2018, 24 haploid plants treated
[11] = PHI07/2018, 24 haploid plants treated
[12] = PHI08/2018, 2 haploid plants treated
[13] = PHI09/2018, 8 haploid plants treated
[14] = PHI09/2019, 14 haploid plants treated
[15] = PHI09/2020, 10 haploid plants treated
[16] = PHI10/2018, 38 haploid plants treated
[17] = PHI10/2019, 36 haploid plants treated
[18] = PHI10/2020, 25 haploid plants treated
[19] = PHI11/2019, 2 haploid plants treated
[20] = PHI11/2020, 2 haploid plants treated
[21] = PHI12/2019, 8 haploid plants treated
[22] = PHI12/2020, 1 haploid plant treated
[23] = PHI13/2019, 30 haploid plants treated
[24] = PHI13/2020, 18 haploid plants treated
[25] = PHI14/2019, 53 haploid plants treated
[26] = PHI14/2020, 14 haploid plants treated
[27] = PHI15/2019, 15 haploid plants treated
[28] = PHI15/2020, 5 haploid plants treated
[29] = PHI16/2019, 27 haploid plants treated
[30] = PHI17/2020, 4 haploid plants treated
[31] = PHI18/2020, 6 haploid plants treated
[32] = PHI19/2020, 23 haploid plants treated
[33] = PHI20/2020, 9 haploid plants treated
[34] = Sum of all genotypes/years, 543 haploid plants treated

COc1cc2c(c(OC)c1OC)-c1ccc(OC)c(=O)cc1[C@@H](NC(C)=O)CC2 [Colchicine, (S)-N-(5,6,7,9-tetrahydro-1,2,3,10-tetramethoxy-9-oxobenzo (a)heptalen-7-yl) acetamide]
27: Number of Fully Fertile DH plants [29] | Number of plants survived after treatment [29]
24: Number of Fully Fertile DH plants [10] | Number of plants survived after treatment [10]
10: Number of Fully Fertile DH plants [15] | Number of plants survived after treatment [15]
100%: DH Success rate (%) [1] | DH Success rate (%) [3] | DH Success rate (%) [4] | DH Success rate (%) [5] | DH Success rate (%) [6] | DH Success rate (%) [7] | DH Success rate (%) [8] | DH Success rate (%) [9] | DH Success rate (%) [10] | DH Success rate (%) [12] | DH Success rate (%) [13] | DH Success rate (%) [15] | DH Success rate (%) [16] | DH Success rate (%) [18] | DH Success rate (%) [19] | DH Success rate (%) [20] | DH Success rate (%) [21] | DH Success rate (%) [22] | DH Success rate (%) [23] | DH Success rate (%) [24] | DH Success rate (%) [27] | DH Success rate (%) [28] | DH Success rate (%) [29] | DH Success rate (%) [30] | DH Success rate (%) [31] | DH Success rate (%) [32] | DH Success rate (%) [33]
5: Number of Fully Fertile DH plants [28] | Number of plants survived after treatment [28]
52: Number of Fully Fertile DH plants [25] | Number of plants survived after treatment [25]
2: Number of Fully Fertile DH plants [12] | Number of plants survived after treatment [12] | Number of Fully Fertile DH plants [19] | Number of plants survived after treatment [19] | Number of Fully Fertile DH plants [20] | Number of plants survived after treatment [20]
4: Number of Fully Fertile DH plants [8] | Number of plants survived after treatment [8] | Number of Fully Fertile DH plants [30] | Number of plants survived after treatment [30]
13: Number of Fully Fertile DH plants [4] | Number of plants survived after treatment [4] | Number of Fully Fertile DH plants [14] | Number of Fully Fertile DH plants [26] | Number of plants survived after treatment [26]
62: Number of Fully Fertile DH plants [2] | Number of plants survived after treatment [2]
3: Number of Fully Fertile DH plants [7] | Number of plants survived after treatment [7]
97%: DH Success rate (%) [17]
20: Number of Fully Fertile DH plants [5] | Number of plants survived after treatment [5]
15: Number of Fully Fertile DH plants [1] | Number of plants survived after treatment [1] | Number of Fully Fertile DH plants [27] | Number of plants survived after treatment [27]
35: Number of Fully Fertile DH plants [17] | Number of plants survived after treatment [17]
18: Number of Fully Fertile DH plants [24] | Number of plants survived after treatment [24]
38: Number of Fully Fertile DH plants [16] | Number of plants survived after treatment [16]
538: Number of plants survived after treatment [34]
98%: DH Success rate (%) [2] | DH Success rate (%) [25]
8: Number of Fully Fertile DH plants [13] | Number of plants survived after treatment [13] | Number of Fully Fertile DH plants [21] | Number of plants survived after treatment [21]
17: Number of Fully Fertile DH plants [3] | Number of plants survived after treatment [3]
93%: DH Success rate (%) [14] | DH Success rate (%) [26]
6: Number of Fully Fertile DH plants [31] | Number of plants survived after treatment [31]
96%: DH Success rate (%) [11]
1: Number of Fully Fertile DH plants [9] | Number of plants survived after treatment [9] | Number of Fully Fertile DH plants [22] | Number of plants survived after treatment [22]
23: Number of Fully Fertile DH plants [11] | Number of plants survived after treatment [11] | Number of Fully Fertile DH plants [32] | Number of plants survived after treatment [32]
9: Number of Fully Fertile DH plants [6] | Number of plants survived after treatment [6] | Number of Fully Fertile DH plants [33] | Number of plants survived after treatment [33]
25: Number of Fully Fertile DH plants [18] | Number of plants survived after treatment [18]
537: Number of Fully Fertile DH plants [34]
30: Number of Fully Fertile DH plants [23] | Number of plants survived after treatment [23]
99%: DH Success rate (%) [34]
14: Number of plants survived after treatment [14]
